Source: patent publication US20110052667A1, “COMPOSITIONS AND METHODS FOR INHIBITING ANGIOGENESIS AND TUMORIGENESIS” (Sylgen Laboratories, Inc., priority 2007, published 2011)
“Also recorded” adds a separate entry of the source.

Legend:
[1] = tested on: human EphB4 promoter; experiment: EphB4 promoter luciferase reporter assay in R+ cells (mouse embryo fibroblasts expressing human IGF-I receptor); type: cell-based
Excerpt: The TAAT motif at position −1365 of the −1500/−7mut construct used in conditions 7-9 was substituted with a TGCT motif by site directed mutagenesis. In FIG. 2, Series 1: Firefly Luciferare signal (pGL3-Luc EphB4 constructs); Seies 2: Renilla Luciferase signal (mock vector); and RLU: Relative Luciferase Units. Conditions: 1-3: −7/−1508 EphB4 promoter region; 4-6: −7/−1028 EphB4 promoter region; 7-9: −7/−1508mut EphB4 promoter construct, wherein: 1. Serum Free, EphB4 promoter −7/−1508; 2. IGF-II, 10 nM, EphB4 promoter −7/−1508; 3.10% FBS, EphB4 promoter −7/−1508; 4. Serum Free, EphB4 promoter −7/−1028; 5. IGF-II, 10 nM, EphB4 promoter −7/−1028; 6.10% FBS, EphB4 promoter −7/−1028; 7. Serum Free, EphB4 promoter −7/−1508mut; 8. IGF-II, 10 nM, EphB4 promoter −7/−1508mut; and 9.10% FBS, EphB4 promoter −7/−1508mut.
In order to establish the role of IGF-II on EphB4 expression, a mouse embryo fibroblast cell line expressing the human IGF-I receptor (R^+ cells) was transiently transfected with three variants of the human EphB4 promoter previously described by Bruhl et al., supra, along with trace amounts of a renilla luciferase mock vector. […] Cell lysates were generated and then assayed for Luciferase activity using a Promega Dual luciferase assay and a Veritas Luminescence reader (Biotek).

[2] = tested on: human EphB4 promoter; experiment: EphB4 promoter luciferase reporter assay in R-InsR-A cells (IGF-IR null embryo fibroblasts expressing human InsR-A); type: cell-based; conditions: IGF-II 10 nM
Method: In FIG. 3, Series 1: Firefly Luciferare signal (pGL3-Luc −1508/−7 EphB4 construct); Series 2: Renilla Luciferase signal (mock vector); and RLU=Relative Luciferase Units. Conditions: 1. R^+ cells (IGF-IR^+); Serum Free, EphB4 promoter −7/−1508; 2. R^+ cells (IGF-IR^+); IGF-II, 10 nM, EphB4 promoter −7/−1508; 3. R-IRA cells (InsR-A^+); Serum Free, EphB4 promoter −7/−1508; 4. R-IRA cells (InsR-A^+); IGF-II, 10 nM, EphB4 promoter −7/−1508.
In order to establish the role of IGF-II on EphB4 expression, a mouse embryo fibroblast cell line expressing the human IGF-I receptor (R^+ cells) was transiently transfected with three variants of the human EphB4 promoter previously described by Bruhl et al., supra, along with trace amounts of a renilla luciferase mock vector. 24 hrs post-trasfection, the cells were serum starved for 12 hrs and then stimulated (or not) with 10 nM IGF-II for 8 hrs. Cell lysates were generated and then assayed for Luciferase activity using a Promega Dual luciferase assay and a Veritas Luminescence reader (Biotek). […]

IGF-II: Insulin-like growth factor-II, used at 10 nM to stimulate cells carrying EphB4 promoter reporter constructs
EphB4 reporter gene activation, promoter with -1500 to -1028 region deleted (-1028 to -7 construct) ([1]; 10 nM IGF-II): but not when the −1500 to −1028 region is deleted
EphB4 gene activation (reporter gene, full length promoter -1508 to -7) ([1]; 10 nM IGF-II for 8 hrs, Dual luciferase assay, compared with serum (10% FBS)): able to stimulate EphB4 gene activation at levels comparable to the ones obtained with serum activation; also recorded: causes the activation of the EphB4 reporter gene
EphB4 gene activation (reporter gene, promoter -7/-1508) through InsR-A [2]: comparable to that obtained through IGF-IR activation
